The values that follow come from patent publication US9273033B2, “Substituted pyridone derivatives as PDE10 inhibitors” (Merck Sharp & Dohme Corp., priority 2012, dated 2016).

Molecules are shown by their SMILES.

human PDE10A2, sequence (Q9Y233 267-1055): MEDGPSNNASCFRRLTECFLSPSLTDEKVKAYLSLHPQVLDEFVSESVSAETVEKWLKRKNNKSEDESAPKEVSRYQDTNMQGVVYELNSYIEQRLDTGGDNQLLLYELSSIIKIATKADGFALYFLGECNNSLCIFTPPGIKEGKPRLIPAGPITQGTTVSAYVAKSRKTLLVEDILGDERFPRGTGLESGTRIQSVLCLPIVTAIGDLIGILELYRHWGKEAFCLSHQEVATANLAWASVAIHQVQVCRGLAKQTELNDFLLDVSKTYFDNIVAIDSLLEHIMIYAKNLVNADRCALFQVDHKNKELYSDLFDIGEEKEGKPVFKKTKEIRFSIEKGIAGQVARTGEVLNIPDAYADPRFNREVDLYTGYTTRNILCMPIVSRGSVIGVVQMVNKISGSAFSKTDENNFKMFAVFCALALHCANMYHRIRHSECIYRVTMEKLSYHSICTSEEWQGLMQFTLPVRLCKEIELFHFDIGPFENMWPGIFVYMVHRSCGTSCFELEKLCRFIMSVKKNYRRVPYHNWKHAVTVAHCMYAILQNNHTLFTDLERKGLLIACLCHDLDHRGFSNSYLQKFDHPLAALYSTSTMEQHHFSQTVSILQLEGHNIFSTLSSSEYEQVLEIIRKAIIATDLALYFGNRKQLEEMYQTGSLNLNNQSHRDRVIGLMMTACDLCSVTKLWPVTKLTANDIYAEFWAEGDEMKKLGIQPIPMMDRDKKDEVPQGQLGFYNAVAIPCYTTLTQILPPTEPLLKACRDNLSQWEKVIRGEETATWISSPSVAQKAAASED

The experiment has as its target human PDE10A2 (Homo sapiens (Human), UniProt Q9Y233). The experiment in a line: PDE10 fluorescence polarization (IMAP FP) inhibition assay. The format is biochemical. Conditions: human PDE10A2, FAM-labeled cAMP substrate, read-out: PDE10A Ki. The method in brief:
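Cytoplasmic lysate of AD293 cells transiently expressing human PDE10A2 (diluted to ~20% substrate conversion) incubated 30 min at room temperature with 50 nM FAM-cAMP in Tris pH 7.2 buffer with MgCl2, DTT. Activity read by IMAP fluorescence polarization. 0% inhibition set with 1% DMSO, 100% with reference PDE10 inhibitor.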
Take `Cc1ncc(-c2ccc(=O)n(C)c2C)c(OC[C@H]2C[C@@H]2c2ccc3c(n2)CCC3)n1` [Example 58, 5-(4-(((1S,2S)-2-(6,7-dihydro-5H-cyclopenta[b]pyridin-2-yl)cyclopropyl)methoxy)-2-methylpyrimidin-5-yl)-1,6-dimethylpyridin-2(1H)-one]: the Ki was 0.481 nM. The value for `Cc1ccc([C@H]2C[C@@H]2COc2nc(C)ncc2-c2cc(C#N)c(=O)n(C)c2C)nc1` [Example 59, 1,6-dimethyl-5-(2-methyl-4-(((1S,2S)-2-(5-methylpyridin-2-yl)cyclopropyl)methoxy)pyrimidin-5-yl)-2-oxo-1,2-dihydropyridine-3-carbonitrile] was 0.426 nM; that for `COc1ccc([C@H]2C[C@@H]2COc2nc(C)ncc2-c2cc(C#N)c(=O)n(C)c2C)nc1` [Example 60, 5-(4-(((1S,2S)-2-(5-methoxypyridin-2-yl)cyclopropyl)methoxy)-2-methylpyrimidin-5-yl)-1,6-dimethyl-2-oxo-1,2-dihydropyridine-3-carbonitrile] was 0.117 nM; that for `COc1ccc([C@H]2C[C@@H]2COc2nc(C)ncc2-c2cn(C)c(=O)cn2)nc1` [Example 61, 5-(4-(((1S,2S)-2-(5-methoxypyridin-2-yl)cyclopropyl)methoxy)-2-methylpyrimidin-5-yl)-1-methylpyrazin-2(1H)-one] was 16.7 nM. Take `Cc1ccc([C@H]2C[C@@H]2COc2nc(C)ncc2-c2cn(C)c(=O)cn2)nc1` [Example 62, 1-methyl-5-(2-methyl-4-(((1S,2S)-2-(5-methylpyridin-2-yl)cyclopropyl)methoxy)pyrimidin-5-yl)pyrazin-2(1H)-one]: the Ki was 12.9 nM. As for `COc1ccc([C@H]2C[C@@H]2COc2nc(C)ncc2-c2ccc(=O)[nH]n2)nc1` [Example 63, 6-(4-(((1S,2S)-2-(5-methoxypyridin-2-yl)cyclopropyl)methoxy)-2-methylpyrimidin-5-yl)pyridazin-3(2H)-one], the Ki worked out at 4.42 nM. The value for `COc1ccc([C@H]2C[C@@H]2COc2nc(C)ncc2-c2ccc(=O)n(C)n2)nc1` [Example 64, 6-(4-(((1S,2S)-2-(5-methoxypyridin-2-yl)cyclopropyl)methoxy)-2-methylpyrimidin-5-yl)-2-methylpyridazin-3(2H)-one] was 2.83 nM. The value for `Cc1ccc([C@H]2C[C@@H]2COc2nc(C)ncc2-c2cc(C)c(=O)n(C)n2)nc1` [Example 65, 2,4-dimethyl-6-(2-methyl-4-(((1S,2S)-2-(5-methylpyridin-2-yl)cyclopropyl)methoxy)pyrimidin-5-yl)pyridazin-3(2H)-one] was 1.83 nM; that for `COc1ccc([C@H]2C[C@@H]2COc2nc(C)ncc2-c2cc(C)c(=O)n(C)n2)nc1` [Example 66, 6-(4-(((1S,2S)-2-(5-methoxypyridin-2-yl)cyclopropyl)methoxy)-2-methylpyrimidin-5-yl)-2,4-dimethylpyridazin-3(2H)-one] was 1.23 nM.

Consider `COc1ccc([C@H]2C[C@@H]2COc2nc(C)ncc2-c2nn(C)c(=O)cc2C)nc1` [Example 67, 6-(4-(((1S,2S)-2-(5-methoxypyridin-2-yl)cyclopropyl)methoxy)-2-methylpyrimidin-5-yl)-2,5-dimethylpyridazin-3(2H)-one], for which the Ki amounted to 5.55 nM. To `Cc1ccc([C@H]2C[C@@H]2COc2nc(C)ncc2-c2nn(C)c(=O)cc2C)nc1` [Example 68, 2,5-dimethyl-6-(2-methyl-4-(((1S,2S)-2-(5-methylpyridin-2-yl)cyclopropyl)methoxy)pyrimidin-5-yl)pyridazin-3(2H)-one] belongs 9.68 nM. The value for `CCn1ccc(-c2cnc(C)nc2OC[C@H]2C[C@@H]2c2ccc(C)cn2)cc1=O` [Example 69, 1-ethyl-4-(2-methyl-4-(((1S,2S)-2-(5-methylpyridin-2-yl)cyclopropyl)methoxy)pyrimidin-5-yl)pyridin-2(1H)-one] was 1.43 nM. The value for `COc1ccc([C@H]2C[C@@H]2COc2nc(C)ncc2-c2ccn(C)c(=O)c2)nc1` [Example 70, 4-(4-(((1S,2S)-2-(5-methoxypyridin-2-yl)cyclopropyl)methoxy)-2-methylpyrimidin-5-yl)-1-methylpyridin-2(1H)-one] was 1.25 nM; that for `Cc1ccc([C@H]2C[C@@H]2COc2nc(C)ncc2-c2cc(=O)[nH]cc2C)nc1` [Example 71, 5-methyl-4-(2-methyl-4-(((1S,2S)-2-(5-methylpyridin-2-yl)cyclopropyl)methoxy)pyrimidin-5-yl)pyridin-2(1H)-one] was 1.01 nM.

Regarding `Cc1ccc([C@H]2C[C@@H]2COc2nc(C)ncc2-c2cc(=O)n(C)cc2C)nc1` [Example 72, 1,5-dimethyl-4-(2-methyl-4-(((1S,2S)-2-(5-methylpyridin-2-yl)cyclopropyl)methoxy)pyrimidin-5-yl)pyridin-2(1H)-one], the Ki amounted to 2.16 nM. To `COc1ccc([C@H]2C[C@@H]2COc2nc(C)ncc2-c2cc(=O)n(C)cc2Cl)nc1` [Example 73, 5-chloro-4-(4-(((1S,2S)-2-(5-methoxypyridin-2-yl)cyclopropyl)methoxy)-2-methylpyrimidin-5-yl)-1-methylpyridin-2(1H)-one] belongs 1.13 nM; to `Cc1ncc(-c2cc(=O)n(C)cc2C)c(OC[C@H]2C[C@@H]2c2ccccn2)n1` [Example 74, 1,5-dimethyl-4-(2-methyl-4-(((1S,2S)-2-(pyridin-2-yl)cyclopropyl)methoxy)pyrimidin-5-yl)pyridin-2(1H)-one], 16.6 nM.

As to `Cc1ncc(-c2cc(=O)[nH]cc2C)c(OC[C@H]2C[C@@H]2c2ccccn2)n1` [Example 75, 5-methyl-4-(2-methyl-4-(((1S,2S)-2-(pyridin-2-yl)cyclopropyl)methoxy)pyrimidin-5-yl)pyridin-2(1H)-one], the Ki is 8.38 nM. To `Cc1ncc(-c2cc(=O)n(C)cc2C)c(OC[C@H]2C[C@@H]2c2ccc3ccccc3n2)n1` [Example 76, 1,5-dimethyl-4-(2-methyl-4-(((1S,2S)-2-(quinolin-2-yl)cyclopropyl)methoxy)pyrimidin-5-yl)pyridin-2(1H)-one] belongs 0.035 nM. For the compound `COc1ccc([C@H]2C[C@@H]2COc2nc(C)ncc2-c2cc(=O)[nH]cc2C)nc1` [Example 77, 4-(4-(((1S,2S)-2-(5-methoxypyridin-2-yl)cyclopropyl)methoxy)-2-methylpyrimidin-5-yl)-5-methylpyridin-2(1H)-one], the Ki came out at 0.612 nM. To `Cc1ccc([C@H]2C[C@@H]2COc2nc(C)ncc2-c2ccn(C)c(=O)c2)nc1` [Example 78, 1-methyl-4-(2-methyl-4-(((1S,2S)-2-(5-methylpyridin-2-yl)cyclopropyl)methoxy)pyrimidin-5-yl)pyridin-2(1H)-one] belongs 1.73 nM; to `Cc1ncc(-c2ccn(C)c(=O)c2)c(OC[C@H]2C[C@@H]2c2ccc3ccccc3n2)n1` [Example 79, 1-methyl-4-(2-methyl-4-(((1S,2S)-2-(quinolin-2-yl)cyclopropyl)methoxy)pyrimidin-5-yl)pyridin-2(1H)-one], 0.03 nM. Take `Cc1ncc(-c2ccn(C)c(=O)c2)c(OC[C@H]2C[C@@H]2c2ccccn2)n1` [Example 80, 1-methyl-4-(2-methyl-4-(((1S,2S)-2-(pyridin-2-yl)cyclopropyl)methoxy)pyrimidin-5-yl)pyridin-2(1H)-one]: the Ki turned out to be 10.8 nM.

Consider `Cc1ncc(-c2cc(=O)[nH]cc2C)c(OC[C@H]2C[C@@H]2c2ccc3ccccc3n2)n1` [Example 81, 5-methyl-4-(2-methyl-4-(((1S,2S)-2-(quinolin-2-yl)cyclopropyl)methoxy)pyrimidin-5-yl)pyridin-2(1H)-one], for which the Ki came out at 0.011 nM. To `COc1ccc([C@H]2C[C@@H]2COc2nc(C)ncc2-c2cc(=O)n(C)cc2C)nc1` [Example 82, 4-(4-(((1S,2S)-2-(5-methoxypyridin-2-yl)cyclopropyl)methoxy)-2-methylpyrimidin-5-yl)-1,5-dimethylpyridin-2(1H)-one] belongs 0.496 nM. Regarding `COc1ccc([C@H]2C[C@@H]2COc2nc(C)ncc2-c2cc(=O)[nH]cc2Cl)nc1` [Example 83, 5-chloro-4-(4-(((1S,2S)-2-(5-methoxypyridin-2-yl)cyclopropyl)methoxy)-2-methylpyrimidin-5-yl)pyridin-2(1H)-one], the Ki was 0.39 nM. As to `Cc1ncc(-c2ccn(C)c(=O)c2)c(OC[C@@H]2C[C@H]2c2ccc(F)cn2)n1` [Example 84, 4-(4-(((1R,2R)-2-(5-fluoropyridin-2-yl)cyclopropyl)methoxy)-2-methylpyrimidin-5-yl)-1-methylpyridin-2(1H)-one], the Ki is 88.4 nM. The value for `COCCn1ccc(-c2cnc(C)nc2OC[C@H]2C[C@@H]2c2ccc(C)cn2)cc1=O` [Example 85, 1-(2-methoxyethyl)-4-(2-methyl-4-(((1S,2S)-2-(5-methylpyridin-2-yl)cyclopropyl)methoxy)pyrimidin-5-yl)pyridin-2(1H)-one] was 0.439 nM.

As for `Cc1ccc([C@H]2C[C@@H]2COc2nc(C)ncc2-c2cc(C)n(C)c(=O)c2)nc1` [Example 86, 1,6-dimethyl-4-(2-methyl-4-(((1S,2S)-2-(5-methylpyridin-2-yl)cyclopropyl)methoxy)pyrimidin-5-yl)pyridin-2(1H)-one], the Ki was determined as 1.56 nM. The value for `COc1ccc([C@H]2C[C@@H]2COc2nc(C)ncc2-c2cc(C)n(C)c(=O)c2)nc1` [Example 87, 4-(4-(((1S,2S)-2-(5-methoxypyridin-2-yl)cyclopropyl)mcthoxy)-2-methylpyrimidin-5-yl)-1,6-dimethylpyridin-2(1H)-one] was 0.785 nM; that for `Cc1ncc(-c2ccn(C)c(=O)c2)c(OC[C@H]2C[C@@H]2c2ccc(F)cn2)n1` [Example 88, 4-(4-(((1S,2S)-2-(5-fluoropyridin-2-yl)cyclopropyl)methoxy)-2-methylpyrimidin-5-yl)-1-methylpyridin-2(1H)-one] was 27.5 nM.

Usually Ki stands for a dissociation constant, usually derived from enzyme kinetics or from competition with a known ligand.
